Values quoted from earlier work, collected in paper PMC2796340 (Journal of the American Chemical Society, 2009).

Target: T1, Gal80 (Saccharomyces cerevisiae, UniProt P04387)
T1 sequence (P04387 1-435): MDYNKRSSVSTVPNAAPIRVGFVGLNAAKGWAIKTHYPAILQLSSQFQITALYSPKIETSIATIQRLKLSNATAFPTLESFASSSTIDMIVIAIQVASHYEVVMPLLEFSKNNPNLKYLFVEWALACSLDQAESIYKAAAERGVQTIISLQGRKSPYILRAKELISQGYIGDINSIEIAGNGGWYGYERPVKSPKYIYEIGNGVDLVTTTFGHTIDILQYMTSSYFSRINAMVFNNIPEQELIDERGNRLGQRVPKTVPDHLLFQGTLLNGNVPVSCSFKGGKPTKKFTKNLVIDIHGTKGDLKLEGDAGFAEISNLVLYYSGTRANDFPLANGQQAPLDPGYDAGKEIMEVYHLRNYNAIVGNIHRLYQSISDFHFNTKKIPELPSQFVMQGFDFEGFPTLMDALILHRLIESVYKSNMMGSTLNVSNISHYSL
Details: synthetic Gal4 activation domain peptide; ref [20]

MDQTAYNAFGITTGMFNTTTMD DVYNYLFDDEDT [Gal4 AD]
binding to the Gal80 repressor site: binds the Gal80 repressor site with high affinity
